Test results published in patent publication US20040224958A1, “Pyridopyrimidinone derivatives for treatment of neurodegenerative disease” (priority 2000, published 2004).
Read-outs that look alike come from different tables or passages of the source.

How the values were obtained:
cdk4/D = cdk4/D (Homo sapiens, UniProt P11802); test: Cyclin-Dependent Kinase 4 (cdk4) Assay; format: biochemical; conditions: read-out: cdk4/D IC50
Cdk5/p25 = Cdk5/p25 (Homo sapiens, UniProt Q00535); test: Cyclin-Dependent Kinase 5 High Throughput Screening (cdk5-HTS) Assay; format: biochemical; conditions: high throughput screen
How it was run: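 IC50 determined from 33P incorporation into GST-RbCOOH captured on glutathione plates and read by scintillation counting. Reaction: 1.0 μg/mL Cdk5/p25, 20 μM [γ33P]ATP, pH 7.4 Tris buffer with MgCl2 and DTT, 30 min at room temperature, stopped with EDTA.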

cdk2/cyclinE = cdk2/cyclinE (Homo sapiens, UniProt P24941); test: Cyclin-Dependent Kinase Assay cdk2/cyclinE
cdk2/cyclinA = cdk2/cyclinA (Homo sapiens, UniProt P24941); test: Cyclin-Dependent Kinase Assay cdk2/cyclinA
Description: Cyclin-Dependent Kinase Assays (cdk2/cyclinE, cdk2/cyclinA, cdc2/cyclinB)
All components except the ATP were added to the wells, and the plate was placed on a plate mixer for 2 minutes. The reaction was begun by addition of [^32P]ATP, and the plate was incubated at 25° C. for 15 minutes. The reaction was terminated by addition of 0.1 mL of 20% TCA. The plate was kept at 4° C. for at least 1 hour to allow the substrate to precipitate. The wells were then washed five times with 0.2 mL of 10% TCA and ^32p incorporation determined with a beta plate counter (Wallac Inc., Gaithersburg, Md.).

cdc2/cyclinB = cdc2/cyclinB (Homo sapiens, UniProt P06493); test: Cyclin-Dependent Kinase Assay cdc2/cyclinB
cdc2/cyclinB, sequence (P06493 whole entry): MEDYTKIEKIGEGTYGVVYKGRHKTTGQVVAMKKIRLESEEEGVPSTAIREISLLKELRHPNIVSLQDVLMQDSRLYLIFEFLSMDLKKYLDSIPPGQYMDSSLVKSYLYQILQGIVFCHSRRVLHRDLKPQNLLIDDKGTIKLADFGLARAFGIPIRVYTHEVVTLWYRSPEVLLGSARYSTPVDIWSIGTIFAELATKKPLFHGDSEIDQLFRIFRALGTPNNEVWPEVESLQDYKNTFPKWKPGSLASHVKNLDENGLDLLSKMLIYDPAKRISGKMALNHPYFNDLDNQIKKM
cdc2/cyclinB, sequence (P14635 whole entry, further chain): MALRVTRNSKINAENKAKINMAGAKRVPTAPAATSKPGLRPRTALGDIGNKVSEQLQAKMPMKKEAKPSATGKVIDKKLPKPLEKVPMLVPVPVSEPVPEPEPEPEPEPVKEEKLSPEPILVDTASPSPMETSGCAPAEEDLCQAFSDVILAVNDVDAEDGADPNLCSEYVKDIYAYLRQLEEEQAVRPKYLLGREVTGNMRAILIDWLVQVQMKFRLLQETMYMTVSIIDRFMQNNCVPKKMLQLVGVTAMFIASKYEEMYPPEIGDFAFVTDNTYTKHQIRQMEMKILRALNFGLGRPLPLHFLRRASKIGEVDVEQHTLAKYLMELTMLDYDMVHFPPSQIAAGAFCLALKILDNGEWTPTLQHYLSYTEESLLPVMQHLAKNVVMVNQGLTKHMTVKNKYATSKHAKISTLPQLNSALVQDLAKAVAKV

cdk4/D, sequence (P11802 whole entry): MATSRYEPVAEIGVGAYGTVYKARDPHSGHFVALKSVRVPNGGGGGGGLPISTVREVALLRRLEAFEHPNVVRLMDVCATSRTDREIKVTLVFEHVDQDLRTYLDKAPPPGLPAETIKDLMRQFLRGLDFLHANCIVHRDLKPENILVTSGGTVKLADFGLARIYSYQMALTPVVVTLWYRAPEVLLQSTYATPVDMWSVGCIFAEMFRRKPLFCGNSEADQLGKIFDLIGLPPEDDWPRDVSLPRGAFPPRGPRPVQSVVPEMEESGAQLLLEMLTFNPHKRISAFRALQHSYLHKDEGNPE
cdk4/D, sequence (P24385 whole entry, further chain): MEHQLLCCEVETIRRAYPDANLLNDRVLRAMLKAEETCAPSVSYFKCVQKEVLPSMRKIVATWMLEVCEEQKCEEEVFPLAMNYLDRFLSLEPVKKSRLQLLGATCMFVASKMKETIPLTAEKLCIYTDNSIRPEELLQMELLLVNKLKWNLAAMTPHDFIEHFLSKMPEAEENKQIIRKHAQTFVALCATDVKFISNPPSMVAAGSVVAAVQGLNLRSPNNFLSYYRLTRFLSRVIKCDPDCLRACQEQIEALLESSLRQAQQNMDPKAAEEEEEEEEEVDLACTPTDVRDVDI

Compound: CCCn1c(=O)ccc2cnc(Nc3ccccc3)nc21 [Example 41, 2-Phenylamino-8-propyl-8H-pyrido[2,3-d]pyrimidin-7-one]
- melting point: 163 to 164 °C

Compound: CC(C)n1c(=O)ccc2cnc(Nc3ccccc3)nc21 [Example 43, 8-Isopropyl-2-phenylamino-8H-pyrido[2,3-d]pyrimidin-7-one]
- melting point: 170 to 171 °C

Compound: CCn1c(=O)ccc2cnc(NCc3ccccc3)nc21 [Example 44, 2-Benzylamino-8-ethyl-8H-pyrido[2,3-d]pyrimidin-7-one]
- melting point: 96 to 97 °C

Compound: CCn1c(=O)ccc2cnc(NC(C)(C)C)nc21 [Example 46, 2-tert-Butylamino-8-ethyl-8H-pyrido[2,3-d]pyrimidin-7-one]
- melting point: 103 to 104 °C

Compound: CCn1c(=O)ccc2cnc(NC3CCCCC3)nc21 [Example 48, 2-Cyclohexylamino-8-ethyl-8H-pyrido[2,3-d]pyrimidin-7-one]
- melting point: 135 to 136 °C

Compound: CCn1c(=O)ccc2cnc(Nc3ccc(-c4ccccc4)cc3)nc21 [Example 49, 2-(Biphenyl-4-ylamino)-8-ethyl-8H-pyrido[2,3-d]pyrimidin-7-one]
- melting point: 207 to 208 °C

Compound: COc1ccc(Cn2c(=O)ccc3cnc(Nc4ccccc4)nc32)cc1 [Example 58, 8-(4-Methoxybenzyl)-2-phenylamino-8H-pyrido[2,3-d]pyrimidin-7-one]
- melting point: 215 to 216 °C

Compound: CCN(CC)CCOc1ccc(Nc2ncc3ccc(=O)n(C(C)C)c3n2)cc1 [Example 59, 2-[4-(2-Diethylaminoethoxy)-phenylamino]-8-isopropyl-8H-pyrido[2,3-d]-pyrimidin-7-one]
- melting point: 84 to 85 °C

Compound: Cn1c(=O)ccc2cnc(N)nc21 [Example 62, 2-Amino-8-methyl-8H-pyrido[2,3-d]pyrimidin-7-one]
- melting point: 237 to 253 °C

Compound: Cn1c(=O)ccc2cnc(NCc3ccccc3)nc21 [Example 63, 2-Benzylamino-8-methyl-8H-pyrido[2,3-d]pyrimidin-7-one]
- melting point: 160 to 162 °C

Compound: CCCCNc1ncc2ccc(=O)n(C)c2n1 [Example 64, 2-Butylamino-8-methyl-8H-pyrido[2,3-d]pyrimidin-7-one]
- melting point: 146 to 147 °C

Compound: CCNc1ncc2ccc(=O)n(C)c2n1 [Example 65, 2-Ethylamino-8-methyl-8H-pyrido[2,3-d]pyrimidin-7-one]
- melting point: 194 to 195 °C

Compound: Cn1c(=O)ccc2cnc(NCCc3ccccn3)nc21 [Example 66, 8-Methyl-2-(2-pyridin-2-yl-ethylamino)-8H-pyrido[2,3-d]pyrimidin-7-one]
- melting point: 155 to 156 °C

Compound: CCNc1nc(Nc2ccccc2)ncc1CCC(=O)OCC [Example 68, 3-(4-Ethylamino-2-phenylamino-pyrimidin-5-yl)propionic acid ethyl ester]
- melting point: 106 to 107 °C

Compound: CCNc1nc(Nc2ccccc2)ncc1C=CC#N [Example 72, 3-(4-Ethylamino-2-phenylamino-pyrimidin-5-yl)acrylonitrile]
- melting point: 244 to 246 °C

Compound: CCNc1nc(Nc2ccccc2)ncc1C(C)=CC(=O)OCC [Example 73, 3-(4-Ethylamino-2-phenylamino-pyrimidin-5-yl)-but-2-enoic acid ethyl ester]
- melting point: 148 to 150 °C

Compound: CCN(CC)c1ccc(Nc2ncc3ccc(=O)n(CC)c3n2)cc1 [Example 78, 2-(4-Diethylamino-phenylamino)-8-ethyl-8H-pyrido[2,3-d]pyrimidin-7-one]
- melting point: 108 to 109 °C

Compound: CCC(C)n1c(=O)ccc2cnc(Nc3ccccc3)nc21 (stereo not shown) [Example 85, 8-sec-Butyl-2-phenylamino-8H-pyrido[2,3-d]pyrimidin-7-one]
- melting point: 155 to 156 °C

Compound: O=c1ccc2cnc(Nc3ccccc3)nc2n1CCCOc1ccccc1 [Example 87, 8-(3-Phenoxypropyl)-2-phenylamino-8H-pyrido[2,3-d]pyrimidin-7-one]
- melting point: 175 to 176 °C

Compound: CCNc1ncc2ccc(=O)n(-c3ccccc3)c2n1 [Example 100, 2-Ethylamino-8-phenyl-8H-pyrido[2,3-d]pyrimidin-7-one]
- melting point: 193 to 195 °C

Compound: O=c1ccc2cnc(Nc3ccc4[nH]ccc4c3)nc2n1CC(F)(F)F [Example 593, 2-(1H-Indol-5-ylamino)-8-(2,2,2-trifluoro-ethyl)-8H-pyrido[2,3-d]pyrimidin-7-one]
- IC50 (cdk4/D): 905 nM
- IC50 (Cdk5/p25): 695 nM
- IC50 (cdk2/cyclinE; cdk2/E IC50): 1370 nM
- IC50 (cdk2/cyclinA; cdk2/A IC50): 2700 nM
- IC50 (cdc2/cyclinB): 960 nM

Compound: O=c1ccc2cnc(Nc3ccc4nn[nH]c4c3)nc2n1CC(F)(F)F [Example 595, 2-(1H-Benzotriazol-5-ylamino)-8-(2,2,2-trifluoro-ethyl)-8H1-pyrido[2,3-d]pyrimidin-7-one]
- IC50 (cdk4/D): 2000 nM
- IC50 (Cdk5/p25): 155 nM
- IC50 (cdk2/cyclinE; cdk2/E IC50): 510 nM
- IC50 (cdk2/cyclinA; cdk2/A IC50): 1450 nM
- IC50 (cdc2/cyclinB): 2000 nM

Compound: O=c1ccc2cnc(Nc3ccc(O)c(Cl)c3)nc2n1CC(F)(F)F [Example 597, 2-(3-Chloro-4-hydroxy-phenylamino)-8-(2,2,2-trifluoro-ethyl)-8H-pyrido[2,3-d]pyrimidin-7-one]
- IC50 (cdk4/D): 2000 nM
- IC50 (Cdk5/p25): 250 nM
- IC50 (cdk2/cyclinE; cdk2/E IC50): 317 nM
- IC50 (cdk2/cyclinA; cdk2/A IC50): 1010 nM
- IC50 (cdc2/cyclinB): 435 nM

Compound: COc1ccc(Nc2ncc3ccc(=O)n(CC(F)(F)F)c3n2)cc1OC [Example 600, 2-(3,4-Dimethoxy-phenylamino)-8-(2,2,2-trifluoro-ethyl)-8H-pyrido[2,3-d]pyrimidin-7-one]
- IC50 (cdk4/D): 1780 nM
- IC50 (Cdk5/p25): 124 nM
- IC50 (cdk2/cyclinE; cdk2/E IC50): 970 nM
- IC50 (cdk2/cyclinA; cdk2/A IC50): 1600 nM
- IC50 (cdc2/cyclinB): 905 nM

Compound: O=c1ccc2cnc(Nc3ccccc3)nc2n1CC(F)(F)F [Example 601, 2-Phenylamino-8-(2,2,2-trifluoro-ethyl)-8H-pyrido[2,3-d]pyrimidin-7-one]
- IC50 (cdk4/D): 1450 nM
- IC50 (Cdk5/p25): 400 nM
- IC50 (cdk2/cyclinE; cdk2/E IC50): 1200 nM
- IC50 (cdk2/cyclinA; cdk2/A IC50): 2850 nM
- IC50 (cdc2/cyclinB): 1650 nM

Compound: COc1ccc(Nc2ncc3ccc(=O)n(C4CCCCC4)c3n2)cc1OC [Example 613, 8-Cyclohexyl-2-(3,4-dimethoxy-phenylamino)-8H-pyrido[2,3-d]pyrimidin-7-one]
- IC50 (cdk4/D): 415 nM
- IC50 (Cdk5/p25): 63 nM
- IC50 (cdk2/cyclinE; cdk2/E IC50): 36.3 nM
- IC50 (cdk2/cyclinA; cdk2/A IC50): 152 nM
- IC50 (cdc2/cyclinB): 101 nM

Compound: Cn1c(=O)ccc2cnc(Nc3ccc4[nH]ccc4c3)nc21 [Example 614, 2-(1H-Indol-5-ylamino)-8-methyl-8H-pyrido[2,3-d]pyrimidin-7-one]
- IC50 (cdk4/D): 1350 nM
- IC50 (Cdk5/p25): 615 nM
- IC50 (cdk2/cyclinE; cdk2/E IC50): 917 nM
- IC50 (cdk2/cyclinA; cdk2/A IC50): 2000 nM
- IC50 (cdc2/cyclinB): 1430 nM

Compound: Cn1c(=O)ccc2cnc(Nc3ccc(NC(=O)OC(C)(C)C)cc3)nc21 [Example 615, [4-(8-Methyl-7-oxo-7,8-dihydro-pyrido[2,3-d]pyrimidin-2-ylamino)-phenyl]-carbamic acid tert-butyl ester]
- IC50 (cdk4/D): 3000 nM
- IC50 (Cdk5/p25): 1140 nM
- IC50 (cdk2/cyclinE; cdk2/E IC50): 1530 nM
- IC50 (cdk2/cyclinA; cdk2/A IC50): 3600 nM
- IC50 (cdc2/cyclinB): 1760 nM

Compound: CCn1c(=O)ccc2cnc(Nc3ccc4[nH]ccc4c3)nc21 [Example 621, 8-Ethyl-2-(1H-indol-5-ylamino)-8H-pyrido[2,3-d]pyrimidin-7-one]
- IC50 (cdk4/D): 230 nM
- IC50 (Cdk5/p25): 250 nM
- IC50 (cdk2/cyclinE; cdk2/E IC50): 400 nM
- IC50 (cdk2/cyclinA; cdk2/A IC50): 925 nM
- IC50 (cdc2/cyclinB): 540 nM

Compound: [4-(7-Oxo-8-propyl-7,8-dihydro-pyrido[2,3-d]pyrimidin-2-ylamino)-phenyl]-carbamic acid tert-butyl ester [Example 326]
- IC50 (cdk4/D): 2100 nM
- IC50 (Cdk5/p25): 460 nM
- IC50 (cdk2/cyclinE; read-out: cdk2/E IC50): 820 nM
- IC50 (cdk2/cyclinA; read-out: cdk2/A IC50): 2450 nM
- IC50 (cdc2/cyclinB; read-out: cdk1/B IC50): 995 nM
